Consider 4 compounds from patent US20190091198A1, “C[…] CANNABIS-BASED COMPOSITIONS AND METHODS FOR THE TREATMENT OF IN[…] THE GASTROINTESTINAL TRACT” (TO PHARMACEUTICALS LLC, priority 2016, published 2019).

The format of the data set is in vivo, human. As to conditions: for maximal mean blood (serum) level: single sublingual dose of Avidekel oil, 4 drops (6.4 mg Δ9-THC and 26 mg CBD), N=7, LC-MS/MS. The method, then: Blood samples were withdrawn at time 0 and after administration of Avidekel oil extract, a sublingual dose 4 drops. Blood samples were withdrawn in intervals of 15, 30, 45, 60 and 90 min., and 2, 3, 4, 5, and 6 h., and stored at −70° C. until analysis at NMS Labs using LC-MS/MS.
FIG. 2A-2D show mean cannabinoid blood levels after administration of a single dose of Avidekel oil (6.4 mg Δ^9-THC and 26 mg CBD).

Setting [1] is: single dose of Avidekel oil (6.4 mg Δ9-THC and 26 mg CBD), N=7.

`CCCCCc1cc(O)c2c(c1)OC(C)(C)[C@@H]1CCC(CO)=C[C@@H]21` [11-Hydroxy Δ^9-THC]: the “maximal mean blood (serum) level” value was determined as 4.5 ± 4.2 ng/mL. Besides, for the setting “single dose of Avidekel oil (6.4 mg Δ9-THC and 26 mg CBD), N=7, within 6 h sampling period”, the “mean blood level after the drop from the maximum” value is 1.9 ± 1.1 ng/mL.
For `C=C(C)[C@@H]1CCC(C)=C[C@H]1c1c(O)cc(CCCCC)cc1O` [CBD, 2-[(1R,6R)-6-isopropenyl-3-1-yl]-5-pentylbenzene-1,3-diol, reference compound], the “maximal mean blood (serum) level” value came to 6.2 ± 5.9 ng/mL.
Take `CCCCCc1cc(O)c2c(c1)OC(C)(C)[C@@H]1CCC(C(=O)O)=C[C@@H]21` [Δ^9 Carboxy THC]: under setting [1], the “mean blood level after 90 min” value was 34.5 ± 47.7 ng/mL and the “mean blood level reached during the 6 h period (still rising)” value was found to be 75.5 ± 77.0 ng/mL.
In the case of `CCCCCc1cc(O)c2c(c1)OC(C)(C)[C@@H]1CCC(C)=C[C@@H]21` [Δ^9-THC, (−)-(6aR,10aR)-6,6,9-Trimethyl-3-methylcyclohex-2-en-pentyl-6a,7,8,10α-tetrahydro-6H-benzo[c]chromen-1-ol, reference compound], the “maximal mean blood (serum) level” value is 2.3 ± 2.2 ng/mL. For the same compound, the “blood levels 6 h after administration” value under setting [1] is “typical to those after 24 hours of Cannabis washout”.
